Tests used:
[1] = test system: HEp-2 tumors; assay: Electroporation therapy of HEp-2 tumors implanted subcutaneously in nude mice (intratumoral drug plus bipolar square pulses); type: in vivo, BALB/c A nu/nu mice
Protocol: BALB/c A nu/nu mice were surgically implanted with HEp-2 tumors in a subcutaneous sac made in the right flank of nude mice. The tumors 34 were allowed to grow and were treated when their average size was about 80 mm^3. The drug, bleomycin, 0.5 units dissolved in 0.15 ml of saline, was injected in each mouse intratumorally using a 30 gauge needle. The drug was injected very slowly at the tumor base and the needle direction rotated (fanning technique) for uniform drug distribution in the tumor 34. The mice in the control were only pulsed D−E+; D=Drug, E=Electric field, +/−denote presence or absence, respectively) while those in the treated group were pulsed and received drug (D+E+). A time lapse of 10+/−1 minute was maintained between the drug injection and the application of electric pulse to allow bleomycin to spread uniformly throughout the tumor 34. The electrical pulses, generated by the prototype bipolar square wave pulse generator, were delivered to the tumor 34 through a 6-needle array (see for example, U.S. Pat. No. 5,702,359 herein incorporated by reference), inserted to the depth of the tumor 34. […] The mice in both the control and pulse-treated groups were monitored every day for mortality and sign of any other disease.
FIG. 16 illustrates the results for the experimental and control groups.

[2] = octanol and water; cited from earlier work

For bleomycin, the tumor volume ([1]; D+E+ group, versus substantial increase in control group D-E+) was “decreased”, the “treated mice with complete tumor regression” value ([1]; D+E+ group, bleomycin 0.5 units in 0.15 ml saline intratumorally, bipolar square pulses via 6-needle array 10+/-1 min later, 65 days following treatment, 7/8 mice) was 87.5% and the “treated mice with partial regression” value ([1]; D+E+ group, bleomycin 0.5 units intratumorally plus bipolar square pulses, 65 days following treatment, 1/8 mice) was 12.5%. For the same substance, the “tumor reaction to electroporation therapy” value ([1]; nearly all the mice treated by both the drug (D) and the pulse (E)) was “severe early edema, and later necrosis of the tumor”, the “extent of partial tumor regression” value ([1]; the 1/8 D+E+ mouse with partial regression) was > 80% and the “log P” value [2] was “very negative”.
